Assay results taken from PMC6130518, “Investigation of the effective components of the flowers of Trollius chinensis from the perspectives of intestinal bacterial transformation and intestinal absorption” (Pharmaceutical Biology, 2017).
Entries after “also recorded” stand apart in the source; their conditions may differ. Like-named read-outs stand apart in the source and are kept apart here.

Assays:
[1] = test system: Caco-2 cells; assay: MTT assay, non-toxic dose range; type: cell-based, human; details: 4 h, positive control
Experimental: The Caco-2 cells were seeded into 96-well plates as they were in logarithmic growth phase. Each well was added with 100 μL of the cell suspension (8.0 × 10^3 cells/mL) and incubated in 5% CO2 and constant temperature (37 °C) and humidity in the incubator. […] The cells were incubated under the same conditions for 4 h; then, 100 μL of 3-(4,5-dimethylthiazolzyl)-2,5-diphenyl tetrazolium bromide (MTT, Amresco, Radnor, PA) solution at the concentration of 0.5 mg/mL took the place of HBSS. After the cells were incubated under the same conditions for 4 h, the supernatant was replaced by 150 μL of dimethyl sulphoxide (DMSO, Sigma Chemical Co., Deisenhofen, Germany); then, the cells were shaken for 10 min. The absorption of the samples was measured on a microplate reader (BioTek Instruments, Inc., Winooski, VT) at the wavelength of 570 nm.
The following formula was used to calculate the cell survival rate=A/A0×100%, wherein, A represented the average absorbance value of the experiment groups, and A0 represented the average absorbance value of the control group.

[2] = test system: activated intestinal bacteria; assay: Intestinal bacterial transformation of AEOF; type: in vitro ADME, human; details: for After transformed by intestinal bacteria / Before transformed by intestinal bacteria: content in the extract; for transformation by intestinal bacteria (in words): in AEOF 15.0, 30.0, 60.0 mg/mL, up to 72 h, single person derived- or multiple people-derived intestinal bacteria
Experimental: Each 3 g of fresh feces from 3 healthy men and 3 healthy women of 23–25 years old was suspended in 200 mL of general anaerobic medium (GAM, including L-cystine hydrochloride, soluble starch, pepsin, tryptone, peptone, soy peptone, serum powder, yeast extract, beef extract, and beef liver extract powder purchased from Beijing Aoboxing Biotechnology Co., Ltd, Beijing, China) broth prepared as per a literature (Yang & Xu [2011]), respectively, and cultured in an anaerobic incubator (Shanghai Cimomedical Appliance Co., Ltd., Shanghai, China) at 37 °C for 24 h (Tsuchihashi et al. [2009]). […] Each 100 μL of the activated intestinal bacteria from the 6 volunteers were added into 11.4 mL of GAM, mixed adequately, and incubated in the same conditions as previously to obtain the mixture of activated intestinal bacteria. About 0.4513, 0.9026, and 1.8052 g of AEOF were dissolved in 30 mL of GAM on a super clean bench (Beijing Great Wall Air Purification Co. Ltd., Beijing, China), respectively, to generate the experimental groups. Then, the triplicate GAM containing AEOF was divided into 24 screw-cap test tubes, and each screw-cap test tube had 3 mL of the GAM and 100 μL of the activated intestinal bacteria and the mixture of activated intestinal bacteria, respectively. They were incubated under the same condition, and the test tubes of each concentration in triplicate were removed from the anaerobic incubator at 0, 2, 4, 6, 12, 24, 48, and 72 h. About 100 μL of the bacterial suspension was replaced with GAM to obtain the control group. The GAM absent of the AEOF was used as the blank group. […] About 300 μL of the supernatant was collected, filtered through a 0.45 μm membrane filter, and stored at −20 °C before HPLC analysis.
The HPLC analysis was performed using a Waters 1500 series (Waters Business Operations, Milford, MA) equipped with a 1525 binary HPLC pump, an on-line degasser, a manual injector and a 2489 UV/Visible detector. […] The temperature was set at 35 °C and the UV detecting wavelengths were 254 and 365 nm. The mobile phase consisted of acetonitrile (HPLC grade, Fisher Co., Pittsburgh, PA) (A) and 1.0% acetic acid (Beijing Chemical Works, Beijing, China) in purified water (v/v) (B), and the gradient elution program was as follows: 5–10% A (0–5 min), 10–20% A (5–10 min), 20–25% A (10–22 min), 25–40% A (22–35 min), 40–50% A (35–40 min), and 50–5% A (40–42 min) at a flow rate of 1.0 mL/min. The volume injected was 5 μL.

[3] = previous study, cited from earlier work
[4] = Absorption experiment with everted gut sacs; details: Sprague-Dawley, rat
[5] = test system: everted gut sacs (jejunum); assay: Absorption experiment with everted gut sacs; details: for transport percentage: Everted gut sacs, AP→BL; for After transported with everted gut sacs: intestinal bacterial transformed AEOF
[6] = Transport experiment with Caco-2 cell monolayers; details: human, Caco-2, Papp, Caco-2 cell monolayers; for Papp at 180 min, 10 mg/mL: extract 10 mg/mL; for Papp at 180 min, 20 mg/mL: extract 20 mg/mL; for Papp at 180 min, 30 mg/mL: extract 30 mg/mL
Experimental: (§1) The Caco-2 cells were cultured in the culture medium consisting of Dulbecco’s Modified Eagle Medium (DMEM, Gibco Inc., Grand Island, CA)-fetal bovine serum (FBS, Gibco Inc., Grand Island, CA)-nonessential amino acids (NEAA, Corning Costar, Cambridge, MA)-‘penicillin-streptomycin’ (Corning Costar, Cambridge, MA) (100:10:1:1, v/v/v/v) in 25 cm^2 flasks, which were incubated in 5% CO2 and constant temperature (37 °C) and humidity in the incubator. The culture medium was replaced every 2 or 3 days, and the cells were split 1:2 or 1:3 to conduct passage when they reached 80% confluence.
(§2) About 1.5 mL of the culture medium was added into the basal (BL) side of each well of the 12-well Transwell plates (insert diameter 12 mm, pore size 3.0 μm, membrane growth area 1.12 cm^2, Corning Costar, Cambridge, MA), and 0.5 mL of the Caco-2 cell suspension at the density of 2.0 × 10^5 cells/mL was seeded into the apical (AP) side of each insert. The cells were incubated in 5% CO2 and constant temperature (37 °C) and humidity in the incubator. The culture medium in both AP and BL sides was replaced every other day in the first week, then that in AP side was replaced every day and that in BL side was replaced every other day. The cells would differentiate and form a confluent monolayer. The integrity and viability of the cell monolayers were evaluated by measuring transepithelial electrical resistance (TEER) values in the culture medium at 37 °C using a Millicell®-ERS system (Millipore Corp., Bedford, MA), and only the inserts with the TEER above 600 Ω/cm^2 on day 21 were selected to perform the transport experiment.
(§3) About 200 μL of the solution in the receiving chambers was collected at 30, 60, 90, 120, 150, and 180 min, respectively, and then the same volume of HBSS was added. All samples were stored at −20 °C and filtered through a 0.45 μm membrane filter for HPLC analysis.
(§4) The HPLC conditions used for the analysis of the intestinal bacterial transformed AEOF before and after transport experiment was the same as above.
(§5) The transport percentage (%) was calculated using the formula transport percentage (%) = dQ/(C0 × V) × 100, wherein, V (mL) represented the volume of the donor compartment.

[7] = test system: Caco-2 cell monolayers; assay: Transport experiment with Caco-2 cell monolayers; details: for transport percentage: Caco-2 cell monolayers; for After transported with Caco-2 cell monolayers: intestinal bacterial transformed AEOF
Experimental: as §1, §2, §3, §4, §5

[8] = first of three lines per compound (lowest extract concentration)
[9] = first of three lines per compound (lowest extract concentration; AEOF 15, 30, 60 mg/mL)
[10] = second of three lines per compound (middle extract concentration, not given)
[11] = third of three lines per compound (highest extract concentration, not given)
[12] = first of three lines per compound (lowest concentration; 10, 20, 30 mg/mL)
[13] = second of three lines per compound (middle concentration, not given)
[14] = third of three lines per compound (highest concentration, not given)

Compound: CC(=O)O[C@H]1C(=O)[C@@]2(C)[C@H]([C@H](OC(=O)c3ccccc3)[C@]3(O)C[C@H](OC(=O)[C@H](O)[C@@H](NC(=O)c4ccccc4)c4ccccc4)C(C)=C1C3(C)C)[C@]1(OC(C)=O)CO[C@@H]1C[C@@H]2O [paclitaxel]
- survival rate of the Caco-2 cells ([1]; 0.02 mg/L): 67.3%
- survival rate of the Caco-2 cells ([1]; 0.04 mg/L): 45.5%
- survival rate of the Caco-2 cells ([1]; 0.08 mg/L): 37.4%

Compound: COc1ccc(C(=O)O)cc1OC [veratric acid]
- After transformed by intestinal bacteria [2, 8]: 3.22 µg/mL
- Before transformed by intestinal bacteria [2, 9]: 2.81 µg/mL
- After transformed by intestinal bacteria [2, 10]: 7.44 µg/mL
- Before transformed by intestinal bacteria [2, 10]: 6.10 µg/mL
- After transformed by intestinal bacteria [2, 11]: 12.78 µg/mL
- Before transformed by intestinal bacteria [2, 11]: 13.39 µg/mL
- transformation by intestinal bacteria (in words) [2]: not transformed; also recorded: not changed
- absorption mechanism ([3]; ref Liu et al. [2014], Wu et al. [2014]): mainly through passive diffusion
- Papp at 180 min, 10 mg/mL [4]: 127 ± 4 ×10⁻⁶ cm/s
- Papp at 180 min, 20 mg/mL [4]: 111 ± 7 ×10⁻⁶ cm/s
- Papp at 180 min, 30 mg/mL [4]: 142 ± 3 ×10⁻⁶ cm/s
- transport percentage ([5]; extract 10 mg/mL): 27.04%
- transport percentage ([5]; extract 20 mg/mL): 21.02%
- transport percentage ([5]; extract 30 mg/mL): 28.12%
- After transported with everted gut sacs [5, 12]: 0.59 µg/mL
- After transported with everted gut sacs [5, 13]: 1.64 µg/mL
- After transported with everted gut sacs [5, 14]: 2.02 µg/mL
- Papp at 180 min, 10 mg/mL ([6]; AP→BL): 104 ± 5 ×10⁻⁶ cm/s
- Papp at 180 min, 10 mg/mL ([6]; BL→AP): 236 ± 5 ×10⁻⁶ cm/s
- Papp at 180 min, 20 mg/mL ([6]; AP→BL): 105 ± 15 ×10⁻⁶ cm/s
- Papp at 180 min, 20 mg/mL ([6]; BL→AP): 210 ± 4 ×10⁻⁶ cm/s
- Papp at 180 min, 30 mg/mL ([6]; AP→BL): 109 ± 4 ×10⁻⁶ cm/s
- Papp at 180 min, 30 mg/mL ([6]; BL→AP): 199 ± 4 ×10⁻⁶ cm/s
- transport percentage ([7]; extract 10 mg/mL, AP→BL): 109.67%
- transport percentage ([7]; extract 10 mg/mL, BL→AP): 95.04%
- transport percentage ([7]; extract 20 mg/mL, AP→BL): 127.58%
- transport percentage ([7]; extract 20 mg/mL, BL→AP): 84.75%
- transport percentage ([7]; extract 30 mg/mL, AP→BL): 131.58%
- transport percentage ([7]; extract 30 mg/mL, BL→AP): 80.33%
- After transported with Caco-2 cell monolayers [7, 12]: 0.92 µg/mL
- After transported with Caco-2 cell monolayers [7, 13]: 1.62 µg/mL
- After transported with Caco-2 cell monolayers [7, 14]: 2.79 µg/mL

Compound: O=c1cc(-c2ccc(O)cc2)oc2c([C@@H]3O[C@H](CO)[C@@H](O)[C@H](O)[C@H]3O)c(O)cc(O)c12 [vitexin]
- After transformed by intestinal bacteria [2, 8]: 3.10 µg/mL
- Before transformed by intestinal bacteria [2, 9]: 2.98 µg/mL
- After transformed by intestinal bacteria [2, 10]: 5.70 µg/mL
- Before transformed by intestinal bacteria [2, 10]: 5.11 µg/mL
- After transformed by intestinal bacteria [2, 11]: 11.19 µg/mL
- Before transformed by intestinal bacteria [2, 11]: 11.04 µg/mL
- transformation by intestinal bacteria (in words) [2]: not transformed; also recorded: not changed
- absorption mechanism ([3]; ref Liu et al. [2015]): transporter mediated efflux in addition to passive diffusion
- Papp at 180 min, 10 mg/mL [4]: 26 ± 2.8 ×10⁻⁶ cm/s
- Papp at 180 min, 20 mg/mL [4]: 15.5 ± 1.1 ×10⁻⁶ cm/s
- Papp at 180 min, 30 mg/mL [4]: 38.1 ± 5 ×10⁻⁶ cm/s
- transport percentage ([5]; extract 10 mg/mL): 5.55%
- transport percentage ([5]; extract 20 mg/mL): 2.94%
- transport percentage ([5]; extract 30 mg/mL): 7.55%
- After transported with everted gut sacs [5, 12]: 0.11 µg/mL
- After transported with everted gut sacs [5, 13]: 0.14 µg/mL
- After transported with everted gut sacs [5, 14]: 0.50 µg/mL
- Papp at 180 min, 10 mg/mL ([6]; AP→BL): 39.6 ± 0.5 ×10⁻⁶ cm/s
- Papp at 180 min, 10 mg/mL ([6]; BL→AP): 28.3 ± 2.7 ×10⁻⁶ cm/s
- Papp at 180 min, 20 mg/mL ([6]; AP→BL): 13.6 ± 1.5 ×10⁻⁶ cm/s
- Papp at 180 min, 20 mg/mL ([6]; BL→AP): 16.4 ± 0.5 ×10⁻⁶ cm/s
- Papp at 180 min, 30 mg/mL ([6]; AP→BL): 33.8 ± 2.8 ×10⁻⁶ cm/s
- Papp at 180 min, 30 mg/mL ([6]; BL→AP): 21.6 ± 0.5 ×10⁻⁶ cm/s
- transport percentage ([7]; extract 10 mg/mL, AP→BL): 47.97%
- transport percentage ([7]; extract 10 mg/mL, BL→AP): 11.43%
- transport percentage ([7]; extract 20 mg/mL, AP→BL): 16.41%
- transport percentage ([7]; extract 20 mg/mL, BL→AP): 6.61%
- transport percentage ([7]; extract 30 mg/mL, AP→BL): 40.90%
- transport percentage ([7]; extract 30 mg/mL, BL→AP): 8.74%
- After transported with Caco-2 cell monolayers [7, 12]: 0.19 µg/mL
- After transported with Caco-2 cell monolayers [7, 13]: 0.23 µg/mL
- After transported with Caco-2 cell monolayers [7, 14]: 0.39 µg/mL
